The values that follow come from paper PMC11085077, “Designing Antitrypanosomal and Antileishmanial BODIPY Derivatives: A Computational and In Vitro Assessment” (Molecules, 2024).

In one series the test system is T. brucei BSF. The series can be described thus: Antitrypanosomal activity, alamarBlue assay. The note with it: for Selectivity Index (SI) T. brucei: SI = IC50 MRC-5/IC50 parasite; for IC50: bloodstream form, 72 h incubation, alamarBlue, error reported as σ; for antitrypanosomal activity (in words): classification used for docking analysis. Format: cell-based, Trypanosoma brucei. The method, then: The in vitro antitrypanosomal and antileishmanial activity of the BODIPY derivatives were evaluated on the bloodstream form (BSF) of T. brucei and the promastigote form of L. major parasites. The toxicity of the compounds was determined after 72 h of incubation using the alamarBlue assay (for T. brucei) and the MTT assay (for L. major). The cytotoxicity of the compounds on a healthy human cell line (human lung fibroblast, MRC-5) was also determined after 72 h of incubation using the alamarBlue assay. The data were expressed as the half maximal inhibitory concentration (IC50). The selectivity index (SI) of each derivative was calculated by dividing the IC50 of MRC-5 cells into the IC50 of T. brucei or L. major.
T. brucei (Lister 427, antigenic type MiTat 1.2, clone 221a, bloodstream forms, “single marker” S427 (S16)) were cultured at 37 °C, 5% CO2 in HMI-9 medium supplemented with 10% heat-inactivated fetal bovine serum (hiFBS, Invitrogen, Carlsbad, CA, USA), as previously described.
The antitrypanosomal activity of the BODIPY derivatives was determined by the alamarBlue® assay (ThermoFisher Scientific, Waltham, MA, USA). The stock solutions of the compounds were prepared in DMSO and the final DMSO percentage in each well was adjusted to be less than 1%. A total of 2 × 10^4 parasites per mL were incubated at 37 °C, 5% CO2 in 96-well plates (50 μL/well) alone or in the presence of an increasing concentration of compounds for 72 h. A total of 20 μL of resazurin solution (110 ng/mL) was then added to each well, and the parasites were incubated for 4 h at 37 °C. Finally, cells were lysed with 50 μL per well of SDS 3%. The plate was incubated at 37 °C for an extra hour and then, fluorescence intensity was measured with an Infinite F200 plate reader (Tecan Austria, GmbH, Grödig, Austria), exciting at 550 nm and recording the emission at 590 nm. The results are expressed as the concentration of a compound that reduces cell growth by 50% versus untreated control cells (IC50). Data are presented as the average of at least three independent measurements, all conducted in triplicate conditions.
A general note: The colour change of resazurin is a common sign of viable cells or microbes.

In the next series the test system is L. major promastigotes. The series is described as follows: Antileishmanial activity, MTT-based assay. The class given is cell-based, Leishmania major. The note with it: for IC50: promastigotes, 72 h incubation, MTT, error reported as σ; for Selectivity Index (SI) L. major: SI = IC50 MRC-5/IC50 parasite. The method, then:
The in vitro antitrypanosomal and antileishmanial activity of the BODIPY derivatives were evaluated on the bloodstream form (BSF) of T. brucei and the promastigote form of L. major parasites. The toxicity of the compounds was determined after 72 h of incubation using the alamarBlue assay (for T. brucei) and the MTT assay (for L. major). The cytotoxicity of the compounds on a healthy human cell line (human lung fibroblast, MRC-5) was also determined after 72 h of incubation using the alamarBlue assay. The data were expressed as the half maximal inhibitory concentration (IC50). The selectivity index (SI) of each derivative was calculated by dividing the IC50 of MRC-5 cells into the IC50 of T. brucei or L. major. L. major (MHOM/IL/80/Friedlin) promastigotes were cultured at 28 °C, 5% CO2 in modified RPMI-1640 medium (Invitrogen, Carlsbad, CA, USA) supplemented with 10% hiFBS [49]. Parasites were maintained in culture in their […] growth phase (below 2 million parasites per mL for T. brucei and 10 million parasites per mL for L. major). The antileishmanial activity of the BODIPY derivatives was assessed using an MTT-based assay (Sigma-Aldrich, St. Louis, MO, USA). The stock solutions of the compounds were prepared in DMSO and the final DMSO percentage in each well was adjusted to be less than 1%. A total of 4 × 10^6 parasites per mL were incubated at 28 °C in 96-well plates (50 μL/well) alone or in the presence of an increasing concentration of compounds DMSO for 72 h. A total of 10 μL of MTT (5 mg/mL) were added to each well and parasites were incubated for 4 h at 28 °C. Finally, cells were lysed with 50 μL/well of 20% SDS. The plate was incubated at 37 °C for an extra hour and then, absorbance was measured at the Infinite F200 plate reader (TECAN Austria, GmbH, Grödig, Austria) at a wavelength of 540 nm. The IC50 was calculated as described above. Data are presented as the average of at least three independent measurements, all conducted in triplicate conditions.
For orientation: Formazan colour is commonly taken as a measure of viable cells.

Series [1] has as its system MRC-5 cell line (human lung fibroblast). The series can be described thus: Cytotoxicity, alamarBlue assay. The conditions noted are these: 72 h incubation, error reported as σ. Format: cell-based. The method, then: The in vitro antitrypanosomal and antileishmanial activity of the BODIPY derivatives were evaluated on the bloodstream form (BSF) of T. brucei and the promastigote form of L. major parasites. The toxicity of the compounds was determined after 72 h of incubation using the alamarBlue assay (for T. brucei) and the MTT assay (for L. major). The cytotoxicity of the compounds on a healthy human cell line (human lung fibroblast, MRC-5) was also determined after 72 h of incubation using the alamarBlue assay. The data were expressed as the half maximal inhibitory concentration (IC50). The selectivity index (SI) of each derivative was calculated by dividing the IC50 of MRC-5 cells into the IC50 of T. brucei or L. major. MRC-5 cell line (human lung fibroblast) was grown in a monolayer at 37 °C, 5% CO2 in DMEM medium (1 g/L glucose) supplemented with 10% hiFBS, 100 U/mL penicillin, […] and 2 mM L-glutamine. Cytotoxicity was measured in MRC-5 through alamarBlue® assay (ThermoFisher Scientific). The stock solutions of the compounds were prepared in DMSO and the final DMSO percentage in each well was adjusted to be less than 1%. A total of 5 × 10^3 cells per mL were seeded in 96-well plates (100 μL/well) with 24 h of incubation time before compound addition at 37 °C, 5% CO2. Then, the compounds were added at increasing concentrations (from 0 to 100 μM) and the plates were incubated for 72 h. A total of 20 μL of resazurin solution (110 ng/mL) was added to each well and cells were incubated for 4 h. Then, cells were lysed with 50 μL/well of 3% SDS. The plate was incubated at 37 °C for an extra hour and then, the fluorescence intensity was measured at the Infinite F200 plate reader (TECAN Austria, GmbH), exciting at 550 nm and recording the emission at 590 nm. The results are expressed as the concentration of a compound that reduces cell growth by 50% versus untreated control cells (IC50). Data are presented as the average of at least three independent measurements, all conducted in triplicate conditions.

The nature of series [2]: Solubility in water (statement). Format: physicochemical.
The subject of another series is Leishmania major. The conditions noted are these: read-out: inhibitory concentration against L. major; cited from earlier work.
In the next series the test system is Trypanosoma brucei. The conditions noted are these: read-out: inhibitory concentration against T. brucei; cited from earlier work.
Where [3] appears, read: MRC5, healthy human lung fibroblasts.

Each structure is given as a SMILES string. Values joined by “and” are separate entries in the source; they are usually repeats but may differ in a detail not shown here. Equal values may be shown once.

Turning to `CC1=C(c2nc3ccccc3[nH]2)C(C)=[N+]2C1=C(c1ccccc1)c1c(C)cc(C)n1[B-]2(F)F` [Compound 3a], the “Selectivity Index (SI) T. brucei” value in the series with T. brucei BSF came to 11.38. Besides, the IC50 in the series with T. brucei BSF is 5.5 ± 0.21 µM; with L. major promastigotes, greater than 100 µM; in series [1] (healthy human lung fibroblasts), 63 µM and 62.6 µM. Besides, the “antitrypanosomal activity (in words)” value with T. brucei BSF was “present antitrypanosomal activity”.

`CC1=CC(C)=[N+]2C1=C(c1ccc(N(C)C)c3ccccc13)c1c(C)c(-c3nc4ccccc4[nH]3)c(C)n1[B-]2(F)F` [Compound 3b]: in the series on T. brucei BSF, the “Selectivity Index (SI) T. brucei” value is on record as greater than 3.59 and the IC50 amounted to 27.9 ± 5.42 µM. In the series with L. major promastigotes, the “Selectivity Index (SI) L. major” value is listed as greater than 1.18 and the IC50 is 84.39 ± 0.32 µM. In series [1] (healthy human lung fibroblasts), the IC50 was greater than 100 µM.

`CC1=C(C=O)C(C)=[N+]2C1=C(c1c3ccccc3cc3ccccc13)c1c(C)c(C=O)c(C)n1[B-]2(F)F` [Compound 3c]: in the series with T. brucei BSF, the “Selectivity Index (SI) T. brucei” value was determined as 1.53. Besides, the IC50 turned out to be 14.2 ± 0.31 µM in the series with T. brucei BSF (Trypanosoma brucei), 3.13 ± 0.13 µM in the series on L. major promastigotes (Leishmania major) and 21.7 ± 3.46 µM in series [1] (setting [3]). The “antitrypanosomal activity (in words)” value with T. brucei BSF is “present antitrypanosomal activity”. Also, in the series with L. major promastigotes, the “Selectivity Index (SI) L. major” value stood at 6.91. Further, the “antileishmanial activity (in words)” value in the series with L. major promastigotes (classification used for docking analysis) is reported as “present antileishmanial activity”.

Take `CC1=C(C=O)C(C)=[N+]2C1=C(c1ccc(N(c3ccccc3)c3ccc(C=O)cc3)cc1)c1c(C)cc(C)n1[B-]2(F)F` [Compound 3d]: the “Selectivity Index (SI) T. brucei” value in the series with T. brucei BSF is reported as 2.28. Also, the IC50 was 38.3 ± 0.93 µM with T. brucei BSF (Trypanosoma brucei), greater than 100 µM in the series on L. major promastigotes (Leishmania major) and 87.1 ± 3.28 µM in series [1] (setting [3]). In addition, in the series with L. major promastigotes, the “Selectivity Index (SI) L. major” value was less than 0.87.

As to `CC1=C(I)C(C)=[N+]2C1=C(c1c3ccccc3cc3ccccc13)c1c(C)c(I)c(C)n1[B-]2(F)F` [Compound 4c], the “Selectivity Index (SI) T. brucei” value with T. brucei BSF came out at 1.72. Moreover, the IC50 is 28.1 ± 1.77 µM in the series with T. brucei BSF (Trypanosoma brucei), greater than 50 µM in the series on L. major promastigotes (Leishmania major) and 48.2 ± 1.13 µM in series [1] (setting [3]). The “solubility in water (in words)” value in series [2] was “low solubility in water”. The “Selectivity Index (SI) L. major” value with L. major promastigotes is less than 0.96.

As to `CN(Cc1cnc2nc(N)nc(N)c2n1)c1ccc(C(=O)N[C@@H](CCC(=O)O)C(=O)O)cc1` [methotrexate], the IC50 in the series on Leishmania major is 3.6 µM; in the series on Trypanosoma brucei it was 2.7 µM.
